According to US6898533B1, “Methods for predicting the biological, chemical, and physical properties of molecules from their spectral properties” (The United States of America as represented by the …, priority 2000, dated 2005):
Read-outs that look alike come from different tables or passages of the source.

What was measured:
[1] = molecular target: beta (ERβ) estrogen receptor (Rattus norvegicus, UniProt Q62986); conditions: cited from earlier work
[2] = molecular target: T1, alpha (ERα) estrogen receptor (Homo sapiens, UniProt P03372); conditions: cited from earlier work
T1 sequence (P03372 1-595): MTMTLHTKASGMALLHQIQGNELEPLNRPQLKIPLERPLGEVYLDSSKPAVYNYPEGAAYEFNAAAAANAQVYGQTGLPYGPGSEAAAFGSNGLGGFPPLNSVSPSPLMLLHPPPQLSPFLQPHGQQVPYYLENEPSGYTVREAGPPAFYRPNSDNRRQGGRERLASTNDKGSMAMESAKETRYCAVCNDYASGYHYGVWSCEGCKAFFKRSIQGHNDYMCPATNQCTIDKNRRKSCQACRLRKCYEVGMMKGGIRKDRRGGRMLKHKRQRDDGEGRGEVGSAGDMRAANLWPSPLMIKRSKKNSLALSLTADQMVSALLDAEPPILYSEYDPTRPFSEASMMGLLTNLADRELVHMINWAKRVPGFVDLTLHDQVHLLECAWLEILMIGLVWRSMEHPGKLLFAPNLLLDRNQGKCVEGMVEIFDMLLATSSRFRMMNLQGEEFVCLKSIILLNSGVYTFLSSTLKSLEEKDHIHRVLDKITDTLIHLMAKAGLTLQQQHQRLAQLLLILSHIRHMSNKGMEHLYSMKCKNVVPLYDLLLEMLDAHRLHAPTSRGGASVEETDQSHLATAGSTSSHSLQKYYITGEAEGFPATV

estrogen receptor [3] = experiment: estrogen receptor relative binding affinity, expanded training set of 107 compounds; conditions: input class, 107-compound training set
Description: The training set included weak estrogen receptor binders in addition to strong and medium estrogen receptor binders.
For this model, strong estrogen receptor binders were defined as having log(RBA)>−0.25 and weak estrogen receptor binders were defined as having log(RBA)<−3.0. Medium estrogen receptor binders were defined as having log(RBA) in between.

estrogen receptor [4] = experiment: estrogen receptor binding class of the 30-compound training set
Description: Two Spectral Data-Activity Relationship (SDAR) models were established, based on ^13C NMR and EI MS spectra, for 30 estrogenic chemicals whose relative binding affinities (RBA) for the alpha (ERα) and beta (ERβ) estrogen receptors are available.
Strong binders to the estrogen receptor were classified as having a log (RBA) over 0.0, and medium binders to the estrogen receptor were classified as having a log (RBA) of less than or equal to 0.0.

[5] = formation of singlet oxygen in fluid solutions; cited from earlier work
[6] = quantum yield for photosensitized production of singlet oxygen; format: physicochemical
Description: Phototosensitized oxidations involving singlet oxygen, a strong oxidant, are implicated in photodynamic inactivation of viruses and cells, in phototherapy for cancer, in photocarcinogenesis and in photodegradation of dyes and polymers. Quenching of excited singlet and triplet states of many substances by ground state molecular oxygen produces singlet oxygen; the lowest electronically excited singlet state of molecular oxygen. A compilation of the quantum yields for the formation of singlet oxygen in fluid solutions for over 700 substances is available from the Notre Dame Radiation Laboratory—Radiation Chemistry Data Center.
The compounds are divided into two endpoint classes based upon having a high quantum yield for production of singlet oxygen (H, QY>0.50) or a low quantum yield for production of singlet oxygen (L, QY<0.50).

estrogen receptor [7] = conditions: 107-compound training set; cited from earlier work
[8] = log of relative binding affinity, 17-β-estradiol RBA = 100
[9] = SDAR training input endpoint class, 30 compounds
[10] = class from singlet oxygen quantum yield

beta (ERβ) estrogen receptor, sequence (Q62986 whole entry): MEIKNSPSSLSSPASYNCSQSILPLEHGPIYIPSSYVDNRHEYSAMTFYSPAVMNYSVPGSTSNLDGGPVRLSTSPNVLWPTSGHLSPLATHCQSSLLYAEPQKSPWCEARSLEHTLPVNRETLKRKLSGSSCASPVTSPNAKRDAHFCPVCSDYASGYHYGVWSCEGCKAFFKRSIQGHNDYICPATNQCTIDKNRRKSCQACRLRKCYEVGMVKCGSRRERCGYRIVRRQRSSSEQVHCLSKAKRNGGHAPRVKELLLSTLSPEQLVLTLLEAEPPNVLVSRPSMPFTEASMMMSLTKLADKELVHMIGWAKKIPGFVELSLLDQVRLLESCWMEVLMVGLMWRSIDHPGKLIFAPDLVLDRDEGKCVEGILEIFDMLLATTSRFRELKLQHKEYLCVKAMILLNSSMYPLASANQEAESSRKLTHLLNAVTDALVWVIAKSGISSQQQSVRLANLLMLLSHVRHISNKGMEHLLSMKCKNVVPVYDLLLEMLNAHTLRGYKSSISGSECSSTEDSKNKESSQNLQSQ

CC(=O)[C@H]1CC[C@H]2[C@@H]3CCC4=CC(=O)CC[C@]4(C)[C@H]3CC[C@]12C [Progesterone]
Log-(RBA) beta [1, 8]: −3.50
Log-(RBA) alpha [2, 8]: −3.50
Class (estrogen receptor [3]): W (weak estrogen receptor binders were defined as having log(RBA)<−3.0)
Class Input (estrogen receptor [4]; [9]): M (medium binders to the estrogen receptor were classified as having a log (RBA) of less than or equal to 0.0)

C(=C\c1ccccc1)/c1ccccc1 [(E)-Stilbene]
Quantum Yield [5]: 0.08
Endpoint Class [6, 10]: L (low quantum yield for production of singlet oxygen (L, QY<0.50))

O=C1c2ccccc2C(=O)c2ccccc21 [9,10-Anthraquinone]
Quantum Yield [5]: 0.15
Endpoint Class [6, 10]: L (low quantum yield for production of singlet oxygen (L, QY<0.50))

c1ccc2c(c1)Cc1ccccc1-2 [Flourene]
Quantum Yield [5]: 0.74
Endpoint Class [6, 10]: H (high quantum yield for production of singlet oxygen (H, QY>0.50))

C[C@]12CC[C@@H]3c4ccc(O)cc4CC[C@H]3[C@@H]1CC[C@H]2O [17α-Estradiol]
log RBA (estrogen receptor [7]): 0.49
Class (estrogen receptor [3]): S (strong estrogen receptor binders were defined as having log(RBA)>−0.25)
Class Input (estrogen receptor [4]; [9]): S (Strong binders to the estrogen receptor were classified as having a log (RBA) over 0.0)

C[C@]12CC[C@@H]3c4ccc(O)cc4CC[C@H]3[C@@H]1C[C@@H](O)[C@@H]2O [Estriol]
Log-(RBA) beta [1, 8]: 1.32

c1ccc2cc3ccccc3cc2c1 [Anthracene]
Quantum Yield [5]: 0.83
Endpoint Class [6, 10]: H (high quantum yield for production of singlet oxygen (H, QY>0.50))

C[C@]12CCC(=O)C[C@@H]1CC[C@@H]1[C@@H]2CC[C@]2(C)C(=O)CC[C@@H]12 [5α-Androstanedione]
Log-(RBA) beta [1]: <−2.0
Log-(RBA) alpha [2]: <−2.0
Class Input (estrogen receptor [4]): M (key: Strong binders to the estrogen receptor were classified as having a log (RBA) over 0.0; M: medium binders to the estrogen receptor were classified as having a log (RBA) of less than or equal to 0.0)
RBA class in words (estrogen receptor [4]): medium

c1ccc(-c2ccccc2)cc1 [Biphenyl]
Endpoint Class [6]: H (key: high quantum yield for production of singlet oxygen (H, QY>0.50); low quantum yield for production of singlet oxygen (L, QY<0.50))

CC(=O)C(C)=O [Biacetyl]
Quantum Yield [5]: 0.57
Endpoint Class [6, 10]: H (high quantum yield for production of singlet oxygen (H, QY>0.50))

c1cc2ccc3cccc4ccc(c1)c2c34 [Pyrene]
Quantum Yield [5]: 0.71
Endpoint Class [6, 10]: H (high quantum yield for production of singlet oxygen (H, QY>0.50))

C[C@H]1CCC[C@@H](O)CCCCCc2cc(O)cc(O)c2C(=O)O1 [β-Zearanol]
Log-(RBA) alpha [2, 8]: −1.20
Class Input (estrogen receptor [4]; [9]): M (medium binders to the estrogen receptor were classified as having a log (RBA) of less than or equal to 0.0)

O=c1ccc2cc3ccoc3cc2o1 [Psoralen]
Quantum Yield [5]: 0.0055
Endpoint Class [6, 10]: L (low quantum yield for production of singlet oxygen (L, QY<0.50))

c1ccc(-c2oc(-c3ccccc3)c3ccccc23)cc1 [1,3-Diphenylisobenzofuran]
Quantum Yield [5]: 0.26
Endpoint Class [6, 10]: L (low quantum yield for production of singlet oxygen (L, QY<0.50))

C[C@]12CC[C@H]3[C@@H](CCC4=CC(=O)CC[C@@]43C)[C@@H]1CC[C@@H]2O [Testosterone]
Log-(RBA) beta [1]: −2.10
Log-(RBA) alpha [2]: −2.10
Class Input (estrogen receptor [4]; [9]): M (medium binders to the estrogen receptor were classified as having a log (RBA) of less than or equal to 0.0)

O=c1c(-c2ccc(O)cc2)coc2cc(O)cc(O)c12 [Genistein]
Class (estrogen receptor [3]): M (Medium estrogen receptor binders were defined as having log(RBA) in between)
Class Input (estrogen receptor [4]; [9]): S (Strong binders to the estrogen receptor were classified as having a log (RBA) over 0.0)

O=C(c1ccccc1)c1ccccc1 [Benzophenone]
Quantum Yield [5]: 0.29
Endpoint Class [6, 10]: L (low quantum yield for production of singlet oxygen (L, QY<0.50))

CC/C(=C(/CC)c1ccc(O)cc1)c1ccc(O)cc1 [Diethystibesterol]
log RBA (estrogen receptor [7]): 2.60
Log-(RBA) beta [1]: 2.47
Class (estrogen receptor [3]): S (strong estrogen receptor binders were defined as having log(RBA)>−0.25)
Class Input (estrogen receptor [4]): S (key: Strong binders to the estrogen receptor were classified as having a log (RBA) over 0.0; M: medium binders to the estrogen receptor were classified as having a log (RBA) of less than or equal to 0.0)

c1ccc2cc3cc4ccccc4cc3cc2c1 [Tetracene]
Quantum Yield [5]: 0.70
Endpoint Class [6, 10]: H (high quantum yield for production of singlet oxygen (H, QY>0.50))

O=c1c2ccccc2oc2ccccc12 [Xanthen-9-one]
Quantum Yield [5]: 0.33
Endpoint Class [6, 10]: L (low quantum yield for production of singlet oxygen (L, QY<0.50))

O=C(C(=O)c1ccccc1)c1ccccc1 [Benzil]
Endpoint Class [6, 10]: H (high quantum yield for production of singlet oxygen (H, QY>0.50))

CCCCN(C)C(=O)CCCCCCCCCC[C@@H]1Cc2cc(O)ccc2[C@H]2CC[C@]3(C)[C@@H](O)CC[C@H]3[C@H]12 [ICI 164,384]
log RBA (estrogen receptor [7]): 1.16
Log-(RBA) beta [1, 8]: 2.22
Class (estrogen receptor [3]): S (strong estrogen receptor binders were defined as having log(RBA)>−0.25)
Class Input (estrogen receptor [4]; [9]): S (Strong binders to the estrogen receptor were classified as having a log (RBA) over 0.0)

CC(C)(C)C(=S)c1ccccc1 [Pivalothiophenone]
Quantum Yield [5]: 1.0
Endpoint Class [6, 10]: H (high quantum yield for production of singlet oxygen (H, QY>0.50))

C[C@]12CC[C@H]3[C@@H](CCC4=CC(=O)CC[C@@H]43)[C@@H]1CC[C@@H]2O [Nandrolone]
Log-(RBA) beta [1]: −0.64
Log-(RBA) alpha [2]: −2.00
Class Input (estrogen receptor [4]; [9]): M (medium binders to the estrogen receptor were classified as having a log (RBA) of less than or equal to 0.0)

O=c1oc2cc(O)ccc2c2oc3cc(O)ccc3c12 [Coumestrol]
Log-(RBA) beta [1, 8]: 2.27

CC(=O)c1ccccc1 [Acetophenone]
Quantum Yield [5]: 0.29
Endpoint Class [6, 10]: L (low quantum yield for production of singlet oxygen (L, QY<0.50))

C[C@]12CCC(=O)C[C@@H]1CC[C@@H]1[C@@H]2CC[C@]2(C)[C@@H](O)CC[C@@H]12 [Dihydrotestosterone]
Log-(RBA) beta [1]: −0.77
Class Input (estrogen receptor [4]): M (key: Strong binders to the estrogen receptor were classified as having a log (RBA) over 0.0; M: medium binders to the estrogen receptor were classified as having a log (RBA) of less than or equal to 0.0)

c1ccc2nc3ccccc3cc2c1 [Acridine]
Quantum Yield [5]: 0.83
Endpoint Class [6, 10]: H (high quantum yield for production of singlet oxygen (H, QY>0.50))

O=C1c2ccccc2Cc2ccccc21 [Anthrone]
Quantum Yield [5]: 0.25
Endpoint Class [6, 10]: L (low quantum yield for production of singlet oxygen (L, QY<0.50))

Cn1ccc2ccccc21 [1-Methylindole]
Quantum Yield [5]: 0.35
Endpoint Class [6, 10]: L (low quantum yield for production of singlet oxygen (L, QY<0.50))

C[C@]12CCC(=O)C[C@H]1CC[C@@H]1[C@@H]2CC[C@]2(C)C(=O)CC[C@@H]12 [5β-Androstanedione]
Log-(RBA) beta [1]: <−2.0
Log-(RBA) alpha [2]: <−2.0
Class Input (estrogen receptor [4]): M (key: Strong binders to the estrogen receptor were classified as having a log (RBA) over 0.0; M: medium binders to the estrogen receptor were classified as having a log (RBA) of less than or equal to 0.0)
RBA class in words (estrogen receptor [4]): medium

O=C1C=Cc2cccc3cccc1c23 [Phenalen-1-one]
Quantum Yield [5]: 0.94
Endpoint Class [6, 10]: H (high quantum yield for production of singlet oxygen (H, QY>0.50))

C[C@]12CC[C@H](O)CC1=CC[C@@H]1[C@@H]2CC[C@]2(C)C(=O)CC[C@@H]12 [Dehydroepiandroster-one]
Log-(RBA) beta [1]: −1.15
Log-(RBA) alpha [2]: −1.40
Class Input (estrogen receptor [4]; [9]): M (medium binders to the estrogen receptor were classified as having a log (RBA) of less than or equal to 0.0)
